{"source": "patent US10849881B2", "about": "“Octahydro-cyclobuta[1,2-c;3,4-c′]dipyrrol-2-yl” (Hoffmann-La Roche Inc., priority 2013, dated 2020)"}
{"target": "ATX (human His-tagged) (Homo sapiens (Human), UniProt Q13822)", "assay": "Human ATX enzyme inhibition assay (fluorescence quenching, MR121 substrate)", "format": "biochemical", "details": "30 nM ATX, 1 μM MR121 substrate, 30° C., pH 8.0", "method_in_brief": "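Fluorescence quenching assay with MR121/tryptophan-labelled substrate analogue in Tris-HCl buffer (140 mM NaCl, CaCl2, MgCl2, 0.01% Triton X-100, pH 8.0). Serially diluted compounds were preincubated 15 min at 30 °C with 30 nM ATX (final), then 1 µM substrate (final) added and incubated 15 min at 30 °C.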", "units": {"IC50": "nM"}}
{"molecule": "COc1cccc(C(=O)N2C[C@@H]3[C@H](C2)[C@H]2CN(C(=O)c4ccc5[nH]nnc5c4)C[C@@H]32)c1", "note": "[Example 1.028, [(3aS,3bS,6aR,6bR)-5-(1H-benzotriazole-5-carbonyl)-octahydro-cyclobuta[1,2-c;3,4-c′]dipyrrol-2-yl]-(3-methoxy-phenyl)-methanone]", "IC50": 2830}
{"molecule": "N#Cc1ccc2cc(C(=O)N3C[C@@H]4[C@H](C3)[C@H]3CN(C(=O)c5ccc6[nH]nnc6c5)C[C@@H]43)ccc2c1", "note": "[Example 1.007, 6-[(3aS,3bS,6aR,6bR)-5-(1H-benzotriazole-5-carbonyl)-octahydro-cyclobuta[1,2-c;3,4-c′]dipyrrole-2-carbonyl]-naphthalene-2-carbonitrile]", "IC50": 62}
{"molecule": "O=C(c1ccc(-c2ccc(Cl)cc2)cc1)N1C[C@@H]2[C@H](C1)[C@H]1CN(C(=O)[C@@H]3CCc4[nH]nnc4C3)C[C@@H]21", "note": "[Example 1.018, (4′-chloro-biphenyl-4-yl)-[(3aR,3bS,6aR,6bS)-5-((R)-4,5,6,7-tetrahydro-1H-benzotriazole-5-carbonyl)-octahydro-cyclobuta[1,2-c;3,4-c′]dipyrrol-2-yl]-methanone]", "IC50": 16}
{"molecule": "O=C(c1ccc2[nH]nnc2c1)N1C[C@@H]2[C@H](C1)[C@H]1CN(S(=O)(=O)c3ccc4cc(Cl)ccc4c3)C[C@@H]21", "note": "[Example 3.001, (1H-Benzotriazol-5-yl)-[(3aS,3bR,6aS,6bR)-5-(6-chloro-naphthalene-2-sulfonyl)-octahydro-cyclobuta[1,2-c;3,4-c′]dipyrrol-2-yl]-methanone]", "IC50": 232}
{"molecule": "O=C(c1ccc2[nH]nnc2c1)N1C[C@@H]2[C@H](C1)[C@H]1CN(S(=O)(=O)c3ccc(-c4ccc(F)cc4)cc3)C[C@@H]21", "note": "[Example 3, (1H-Benzotriazol-5-yl)-[(3aS,3bR,6aS,6bR)-5-(4′-fluoro-biphenyl-4-sulfonyl)-octahydro-cyclobuta[1,2-c;3,4-c′]dipyrrol-2-yl]-methanone]", "IC50": 173}
{"molecule": "O=C(OCc1ccc(OC(F)(F)F)cc1)N1C[C@@H]2[C@H](C1)[C@H]1CN(C(=O)c3ccc4[nH]nnc4c3)C[C@@H]21", "note": "[Example 2, (3aR,3bS,6aR,6bS)-5-(1H-Benzotriazole-5-carbonyl)-octahydro-cyclobuta[1,2-c;3,4-c′]dipyrrole-2-carboxylic acid 4-trifluoromethoxy-benzyl Ester]", "IC50": 14}
{"molecule": "O=C(c1ccc2cc(-c3ccccc3)ccc2c1)N1C[C@@H]2[C@H](C1)[C@H]1CN(C(=O)c3ccc4[nH]nnc4c3)C[C@@H]21", "note": "[Example 1.015, [(3aS,3bS,6aR,6bR)-5-(1H-benzotriazole-5-carbonyl)-octahydro-cyclobuta[1,2-c;3,4-c′]dipyrrol-2-yl]-(6-phenyl-naphthalen-2-yl)-methanone]", "IC50": 11}
{"molecule": "(1H-benzotriazol-yl)-{(3aS,3bS,6aR,6bR)-5-[5-bromo-2-methyl-6-(2,2,2-trifluoro-ethoxy)-pyridine-3-carbonyl]-octahydro-cyclobuta[1,2-c;3,4-c′]dipyrrol-2-yl}-methanone [Example 1.103]", "IC50": 27}
{"molecule": "O=C(c1cnc(OCC(F)(F)F)c(-c2ccco2)c1)N1C[C@@H]2[C@H](C1)[C@H]1CN(C(=O)c3ccc4[nH]nnc4c3)C[C@@H]21", "note": "[Example 1.108, (1H-benzotriazol-5-yl)-{(3aS,3bS,6aR,6bR)-5-[5-furan-2-yl-6-(2,2,2-trifluoro-ethoxy)-pyridine-3-carbonyl]-octahydro-cyclobuta[1,2-c;3,4-c′]dipyrrol-2-yl}-methanone]", "IC50": 6}
{"molecule": "CCOc1cc(C(=O)N2C[C@@H]3[C@H]4CN(C(=O)c5ccc6[nH]nnc6c5)C[C@H]4[C@@H]3C2)nc2cc(Cl)ccc12", "note": "[Example 1.076, [(3aR,3bS,6aR,6bS)-5-(1H-benzotriazole-5-carbonyl)-octahydro-cyclobuta [1,2-c;3,4-c′]dipyrrol-2-yl]-(7-chloro-4-ethoxy-quinolin-2-yl)-methanone]", "IC50": 12.5}
{"molecule": "O=C(CCc1ccc(OC(F)(F)F)cc1)N1C[C@@H]2[C@H](C1)[C@H]1CN(C(=O)c3ccc4[nH]nnc4c3)C[C@@H]21", "note": "[Example 1.001, 1-[(3aS,3bR,6aS,6bR)-5-(1H-benzotriazole-5-carbonyl)-octahydro-cyclobuta[1,2-c;3,4-c′]dipyrrol-2-yl]-3-(4-trifluoromethoxy-phenyl)-propan-1-one]", "IC50": 11}
{"molecule": "O=C(c1ccc2cc(Br)ccc2c1)N1C[C@@H]2[C@H](C1)[C@H]1CN(C(=O)[C@@H]3CCc4[nH]nnc4C3)C[C@@H]21", "note": "[Example 1.016, (6-bromo-naphthalen-2-yl)-[(3aR,3bS,6aR,6bS)-5-((R)-4,5,6,7-tetrahydro-1H-benzotriazole-5-carbonyl)-octahydro-cyclobuta[1,2-c;3,4-c′]dipyrrol-2-yl]-methanone]", "IC50": 17}
{"molecule": "O=C(c1ccc2[nH]nnc2c1)N1C[C@@H]2[C@H](C1)[C@H]1CN(C(=O)c3cc(OCC(F)(F)F)c(C4CC4)cn3)C[C@@H]21", "note": "[Example 1.094, (1H-benzotriazol-5-yl)-{(3aS,3bR,6aS,6bR)-5-[5-cyclopropyl-4-(2,2,2-trifluoro-ethoxy)-pyridine-2-carbonyl]-octahydro-cyclobuta[1,2-c;3,4-c′]dipyrrol-2-yl}-methanone]", "IC50": 77}
{"molecule": "O=C(c1ccc2[nH]nnc2c1)N1C[C@@H]2[C@H](C1)[C@H]1CN(C(=O)c3ccc(-c4ccc(Cl)cc4)c(=O)[nH]3)C[C@@H]21", "note": "[Example 1.075, 6-[(3aR,3bS,6aR,6bS)-5-(1H-benzotriazole-5-carbonyl)-octahydro-cyclobuta[1,2-c;3,4-c′]dipyrrole-2-carbonyl]-3-(4-chloro-phenyl)-1H-pyridin-2-one]", "IC50": 20}
{"molecule": "CCOc1cc(C(=O)N2C[C@@H]3[C@H]4CN(C(=O)c5ccc(S(N)(=O)=O)nc5)C[C@H]4[C@@H]3C2)nc2ccccc12", "note": "[Example 1.083, 5-[(3aS,3bR,6aS,6bR)-5-(4-ethoxy-quinoline-2-carbonyl)-octahydro-cyclobuta[1,2-c;3,4-c′]dipyrrole-2-carbonyl]-pyridine-2-sulfonic acid amide]", "IC50": 154}
{"molecule": "O=C(c1ccc2[nH]nnc2c1)N1C[C@@H]2[C@H](C1)[C@H]1CN(C(=O)c3cc4ccc(OC(F)(F)F)cc4[nH]3)C[C@@H]21", "note": "[Example 1.011, [(3aR,3bS,6aR,6bS)-5-(1H-benzotriazole-5-carbonyl)-octahydro-cyclobuta[1,2-c;3,4-c′]dipyrrol-2-yl]-(6-trifluoromethoxy-1H-indol-2-yl)-methanone]", "IC50": 8}
{"molecule": "O=C(c1ccc2[nH]nnc2c1)N1C[C@@H]2[C@H](C1)[C@H]1CN(C(=O)c3cc4cc(Cl)ccc4[nH]3)C[C@@H]21", "note": "[Example 1.048, [(3aR,3bS,6aR,6bS)-5-(1H-benzotriazole-5-carbonyl)-octahydro-cyclobuta[1,2-c;3,4-c′]dipyrrol-2-yl]-(5-chloro-1H-indol-2-yl)-methanone]", "IC50": 208}
{"molecule": "O=C(c1cc(OCC2CC2)c2ccccc2c1)N1C[C@@H]2[C@H](C1)[C@H]1CN(C(=O)c3ccc4[nH]nnc4c3)C[C@@H]21", "note": "[Example 1.025, [(3aS,3bS,6aR,6bR)-5-(1H-benzotriazole-5-carbonyl)-octahydro-cyclobuta[1,2-c;3,4-c′]dipyrrol-2-yl]-(4-cyclopropylmethoxy-naphthalen-2-yl)-methanone]", "IC50": 8.5}
{"molecule": "O=C(c1ccc2[nH]nnc2c1)N1C[C@@H]2[C@H](C1)[C@H]1CN(C(=O)c3ccc(C(F)(F)F)c(OCC(F)(F)F)n3)C[C@@H]21", "note": "[Example 1.097, (1H-benzotriazol-5-yl)-{(3aS,3bR,6aS,6bR)-5-[6-(2,2,2-trifluoro-ethoxy)-5-trifluoromethyl-pyridine-2-carbonyl]-octahydro-cyclobuta[1,2-c;3,4-c′]dipyrrol-2-yl}-methanone]", "IC50": 25}
{"molecule": "COc1cc2ccccc2cc1C(=O)N1C[C@@H]2[C@H]3CN(C(=O)c4ccc5[nH]nnc5c4)C[C@H]3[C@@H]2C1", "note": "[Example 1.021, [(3aS,3bS,6aR,6bR)-5-(1H-benzotriazole-5-carbonyl)-octahydro-cyclobuta[1,2-c;3,4-c′]dipyrrol-2-yl]-(3-methoxy-naphthalen-2-yl)-methanone]", "IC50": 265}
{"molecule": "O=C(c1ccc2[nH]nnc2c1)N1C[C@@H]2[C@H](C1)[C@H]1CN(C(=O)c3cc(OCc4ccccc4)c4cc[nH]c4c3)C[C@@H]21", "note": "[Example 1.053, [(3aS,3bS,6aR,6bR)-5-(1H-benzotriazole-5-carbonyl)-octahydro-cyclobuta[1,2-c;3,4-c′]dipyrrol-2-yl]-(4-benzyloxy-1H-indol-6-yl)-methanone]", "IC50": 14}
{"molecule": "Cc1ccc2cc(C(=O)N3C[C@@H]4[C@H]5CN(C(=O)c6ccc7[nH]nnc7c6)C[C@H]5[C@@H]4C3)[nH]c2c1", "note": "[Example 1.035, [(3aR,3bS,6aR,6bS)-5-(1H-benzotriazole-5-carbonyl)-octahydro-cyclobuta[1,2-c;3,4-c′]dipyrrol-2-yl]-(6-methyl-1H-indol-2-yl)-methanone]", "IC50": 243}
{"molecule": "O=C(c1cnc(OCC(F)(F)F)c(C(F)(F)F)c1)N1C[C@@H]2[C@H](C1)[C@H]1CN(C(=O)c3ccc4[nH]nnc4c3)C[C@@H]21", "note": "[Example 1.105, (1H-benzotriazol-5-yl)-{(3aS,3bS,6aR,6bR)-5-[6-(2,2,2-trifluoro-ethoxy)-5-trifluoromethyl-pyridine-3-carbonyl]-octahydro-cyclobuta[1,2-c;3,4-c′]dipyrrol-2-yl}-methanone]", "IC50": 8}
{"molecule": "O=C(OCc1cc(Cl)cc(Cl)c1)N1C[C@@H]2[C@H](C1)[C@H]1CN(C(=O)c3ccc4[nH]nnc4c3)C[C@@H]21", "note": "[Example 2.001, (3aR,3bS,6aR,6bS)-5-(1H-Benzotriazole-5-carbonyl)-octahydro-cyclobuta[1,2-c;3,4-c′]dipyrrole-2-carboxylic Acid 3,5-dichloro-benzyl Ester]", "IC50": 4.5}
